For series [1] the following is noted: paraben with M=H; at 25° C.; cited from earlier work.
Series [2] is described as follows: 13C NMR investigation of the reaction between ascorbic acid and methylparaben. The series is classed as physicochemical. Here is the method: Small portions of powdered sodium hydroxide were added with agitation to adjust the pH. At 3 defined pH's (pH 7.5, 8.8 and 9.6), a representative aliquot (0.5 cm^3) was transferred to an NMR tube. The 3 sampled reaction mixtures were monitored daily for one week by ^13C NMR When not being monitored, the mixtures were stored at room temperature protected from light. At the end of the monitoring period a small quantity of methanol was added to the solution to confirm that, if hydrolysis had occurred, the ^13C NMR signal for any methanol produced by transesterification would have been well separated from that for the initial methyl ester resonance.
The ^13C NMR spectra were obtained using a JEOL EX270 NMR spectrometer with a broad-band tuneable probe operating at a frequency of 67.94 MHz. The data for each spectrum was acquired over a period of about 30 min.
An aliquot (0.5 cm^3) of the colourless solution was removed and monitored by ^13C NMR spectroscopy. As part of the monitoring process the sample was placed in a Bruker AM250 NMR spectrometer after 29 hours and its ^13C NMR spectrum accumulated over a period of 16 hours. […] A small quantity of methanol was then added to the sample as a reference peak.

Structures are written as SMILES.

With `CCOC(=O)c1ccc(O)cc1` [ethylparaben, Ethylparaben], the solubility in water in series [1] is reported as 0.070% w/w at 25° C.,.

As to `COC(=O)c1ccc(O)cc1` [methylparaben, Methylparaben], the “additional components from interaction of ascorbic acid and methylparaben (13C NMR)” value in series [2] (Experiment B, pH 9.5, spectrum started after 29 hours, accumulated over 16 hours) was “no significant quantities of any additional components had been produced”. Moreover, in series [2] (Experiment B, pH 9.5, with ascorbic acid, after 29 hours, accumulated 16 hours), the “formation of methanol from hydrolysis of methylparaben (13C NMR)” value is recorded as “no evidence for the formation of any methanol”. For the same compound, the “reaction with ascorbic acid or hydrolysis (13C NMR)” value in series [2] (even at pH approximately 9.6 after 7 days) is “no evidence was found from ^13C NMR studies for any significant reaction between ascorbic acid and methylparaben, or any significant hydrolysis”.

The values above are taken from US7052672B2, “Stabilized radiopharmaceutical compositions” (GE Healthcare Limited, priority 2000, dated 2006).
